In publication PMC12030627, “Radioiodinated Bicyclic RGD Peptide Derivatives for Enhanced Tumor Accumulation” (Pharmaceuticals, 2025):
Starred links: 1 amine or outer side, 2 acyl side, 3 side chain; linkers in the order of their positions; H or OH if unused. Positions of bridges follow the written chain, without caps; N, C: chain ends. Non-standard residues stand in square brackets, D forms with d. Residues, ends and D or L forms follow the SMILES beside them. *: point of attachment. Butanoyl(4-(4-I-phenyl)) = O=C(CCCc1ccc(I)cc1)*; TBMB = c1c(C[*:1])cc(C[*:3])cc1C[*:2]; Palmitoyl = CCCCCCCCCCCCCCCC(=O)*; Benzoyl(3-I) = O=C(c1cccc(I)c1)*; 4Abz = Nc1ccc(C(=O)O)cc1

Key:
His-tagged integrin αVβ3 = target: T1, His-tagged integrin αVβ3 (Homo sapiens, UniProt P05106+P06756); test: In vitro selectivity assay, His-tag Dynabeads pulldown, integrin αVβ3; type: binding; conditions: for Radioactivity accumulation in αVβ3 protein: 10 kBq probe, 10 pmol His-tagged integrin, 37 °C 2 h, pH 7.4 buffer, without cyclo-(RGDfK); for Radioactivity accumulation in αVβ3 protein with cyclo-(RGDfK) blocking versus free: cyclo-(RGDfK) 25 μM preincubated 30 min at 37 °C, 2 h incubation, unpaired t-test p < 0.001
T1 construct: purchased ACRO Biosystems IT3-H52E3
Description: (§1) Binding assays were conducted following our previously reported method, using the Dynabeads™ His-Tag Isolation and Pulldown protocol (Thermo Fisher Scientific, Tokyo, Japan). Briefly, [^125I]bcRGDpal or [^125I]bcRGDiba (10 kBq/sample) was incubated at 37 °C for 2 h in 200 μL of incubation buffer (3.25 mM sodium phosphate, 70 mM NaCl, 0.01% Tween 20, pH 7.4) with 10 pmol of His-tagged integrin αVβ3, αVβ5, or α5β1 proteins (αVβ3: IT3-H52E3, ACRO Biosystems, Newark, DE, USA; αVβ5: 2528-AV, R&D Systems, Minneapolis, MN, USA; α5β1: CT014-H2508H, Sino Biological, Beijing, China). For the inhibition group, cyclo(RGDfK) (25 μM, S7834, Selleck, Houston, TX, USA) was preincubated with the integrin protein for 30 min at 37 °C. Next, A 2× binding buffer (100 mM sodium phosphate, 600 mM NaCl, 0.01% Tween 20, pH 8.0) was mixed with the solution at a 1:1 volume ratio and incubated with 5 μL of magnetic beads at 37 °C for 10 min to enable protein immobilization. Following immobilization, the beads were rinsed three times with the binding buffer, and radioactivity was measured using a NaI well-type scintillation counter (2480 Wizard2; PerkinElmer Japan, Yokohama, Japan). Protein binding was expressed as %dose/nmol protein.

His-tagged integrin α5β1 = target: T2, His-tagged integrin α5β1 (Homo sapiens, UniProt P05556+P08648); test: In vitro selectivity assay, His-tag Dynabeads pulldown, integrin α5β1; type: binding; conditions: cyclo-(RGDfK) 25 μM blocking; 2 h incubation at 37 °C
T2 construct: purchased Sino Biological CT014-H2508H
Description: as §1

T1 sequence (P06756 31-992 limits assumed): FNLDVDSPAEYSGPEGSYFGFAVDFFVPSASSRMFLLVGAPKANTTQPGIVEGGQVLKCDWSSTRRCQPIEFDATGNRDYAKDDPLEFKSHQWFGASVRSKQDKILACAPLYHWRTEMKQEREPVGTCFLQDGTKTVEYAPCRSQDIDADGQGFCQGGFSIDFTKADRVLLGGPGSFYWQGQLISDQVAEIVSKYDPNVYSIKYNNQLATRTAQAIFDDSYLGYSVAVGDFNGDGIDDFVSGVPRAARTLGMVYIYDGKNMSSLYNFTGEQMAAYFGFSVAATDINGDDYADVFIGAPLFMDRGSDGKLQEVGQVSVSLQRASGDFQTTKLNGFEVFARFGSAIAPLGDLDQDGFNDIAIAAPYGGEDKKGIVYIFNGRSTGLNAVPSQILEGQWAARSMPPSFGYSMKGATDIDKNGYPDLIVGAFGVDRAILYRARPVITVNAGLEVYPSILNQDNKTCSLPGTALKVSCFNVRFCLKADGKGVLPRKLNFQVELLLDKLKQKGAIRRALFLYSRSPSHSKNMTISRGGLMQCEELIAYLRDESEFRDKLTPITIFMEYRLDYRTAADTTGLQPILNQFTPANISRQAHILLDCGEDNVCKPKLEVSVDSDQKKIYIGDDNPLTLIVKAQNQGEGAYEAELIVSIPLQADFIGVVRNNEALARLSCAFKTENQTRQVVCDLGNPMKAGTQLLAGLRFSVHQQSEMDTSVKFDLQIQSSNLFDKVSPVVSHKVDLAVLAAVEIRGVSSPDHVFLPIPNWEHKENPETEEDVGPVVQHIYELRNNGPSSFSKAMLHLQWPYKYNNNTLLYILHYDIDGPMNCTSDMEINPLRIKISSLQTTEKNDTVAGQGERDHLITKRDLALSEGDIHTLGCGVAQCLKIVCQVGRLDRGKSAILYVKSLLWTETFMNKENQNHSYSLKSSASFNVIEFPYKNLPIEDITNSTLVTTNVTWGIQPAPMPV
T1 sequence (P05106 27-718 limits assumed): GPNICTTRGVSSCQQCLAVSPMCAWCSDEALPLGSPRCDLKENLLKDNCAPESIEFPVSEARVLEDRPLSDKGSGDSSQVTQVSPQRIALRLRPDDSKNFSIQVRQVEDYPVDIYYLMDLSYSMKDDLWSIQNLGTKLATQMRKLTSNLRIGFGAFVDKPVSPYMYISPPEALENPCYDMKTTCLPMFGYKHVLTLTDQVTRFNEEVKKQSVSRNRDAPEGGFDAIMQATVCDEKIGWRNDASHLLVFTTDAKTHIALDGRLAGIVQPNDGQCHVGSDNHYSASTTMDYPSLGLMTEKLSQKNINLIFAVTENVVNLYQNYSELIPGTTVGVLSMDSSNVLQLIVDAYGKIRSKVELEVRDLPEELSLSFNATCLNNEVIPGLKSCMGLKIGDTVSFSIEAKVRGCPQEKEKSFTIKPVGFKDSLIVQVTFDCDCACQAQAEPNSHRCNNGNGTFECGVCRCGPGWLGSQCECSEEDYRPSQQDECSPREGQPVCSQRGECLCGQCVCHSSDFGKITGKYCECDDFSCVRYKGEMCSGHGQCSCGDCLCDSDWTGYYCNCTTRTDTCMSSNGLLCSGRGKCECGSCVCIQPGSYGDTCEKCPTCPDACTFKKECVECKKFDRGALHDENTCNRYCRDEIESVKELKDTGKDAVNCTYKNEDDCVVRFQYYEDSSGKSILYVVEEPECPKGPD
T2 sequence (P08648 42-995 limits assumed): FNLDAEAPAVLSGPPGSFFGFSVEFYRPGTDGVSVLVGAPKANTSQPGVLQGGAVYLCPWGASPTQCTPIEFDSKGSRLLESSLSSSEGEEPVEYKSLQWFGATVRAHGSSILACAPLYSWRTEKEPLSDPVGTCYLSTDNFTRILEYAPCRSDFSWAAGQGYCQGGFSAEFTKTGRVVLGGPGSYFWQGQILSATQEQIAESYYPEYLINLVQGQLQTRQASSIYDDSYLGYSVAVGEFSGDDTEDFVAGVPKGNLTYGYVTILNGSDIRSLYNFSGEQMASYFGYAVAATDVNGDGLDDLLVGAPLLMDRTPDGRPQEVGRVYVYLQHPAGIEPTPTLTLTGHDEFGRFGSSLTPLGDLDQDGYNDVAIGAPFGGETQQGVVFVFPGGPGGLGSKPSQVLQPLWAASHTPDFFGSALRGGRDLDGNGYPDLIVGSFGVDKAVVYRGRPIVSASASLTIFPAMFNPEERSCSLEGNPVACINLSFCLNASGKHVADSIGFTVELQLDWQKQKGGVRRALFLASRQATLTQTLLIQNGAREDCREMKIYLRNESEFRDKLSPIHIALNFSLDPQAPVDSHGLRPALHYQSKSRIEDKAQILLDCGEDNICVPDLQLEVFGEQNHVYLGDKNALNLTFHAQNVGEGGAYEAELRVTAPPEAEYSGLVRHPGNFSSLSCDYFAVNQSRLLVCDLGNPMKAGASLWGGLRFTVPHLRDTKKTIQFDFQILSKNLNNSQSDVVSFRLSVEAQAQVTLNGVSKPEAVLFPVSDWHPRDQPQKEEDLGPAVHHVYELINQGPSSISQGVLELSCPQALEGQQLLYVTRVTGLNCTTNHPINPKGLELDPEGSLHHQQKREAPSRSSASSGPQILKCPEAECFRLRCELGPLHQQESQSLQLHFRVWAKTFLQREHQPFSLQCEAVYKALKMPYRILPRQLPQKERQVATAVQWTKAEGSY
T2 sequence (P05556 21-728 limits assumed): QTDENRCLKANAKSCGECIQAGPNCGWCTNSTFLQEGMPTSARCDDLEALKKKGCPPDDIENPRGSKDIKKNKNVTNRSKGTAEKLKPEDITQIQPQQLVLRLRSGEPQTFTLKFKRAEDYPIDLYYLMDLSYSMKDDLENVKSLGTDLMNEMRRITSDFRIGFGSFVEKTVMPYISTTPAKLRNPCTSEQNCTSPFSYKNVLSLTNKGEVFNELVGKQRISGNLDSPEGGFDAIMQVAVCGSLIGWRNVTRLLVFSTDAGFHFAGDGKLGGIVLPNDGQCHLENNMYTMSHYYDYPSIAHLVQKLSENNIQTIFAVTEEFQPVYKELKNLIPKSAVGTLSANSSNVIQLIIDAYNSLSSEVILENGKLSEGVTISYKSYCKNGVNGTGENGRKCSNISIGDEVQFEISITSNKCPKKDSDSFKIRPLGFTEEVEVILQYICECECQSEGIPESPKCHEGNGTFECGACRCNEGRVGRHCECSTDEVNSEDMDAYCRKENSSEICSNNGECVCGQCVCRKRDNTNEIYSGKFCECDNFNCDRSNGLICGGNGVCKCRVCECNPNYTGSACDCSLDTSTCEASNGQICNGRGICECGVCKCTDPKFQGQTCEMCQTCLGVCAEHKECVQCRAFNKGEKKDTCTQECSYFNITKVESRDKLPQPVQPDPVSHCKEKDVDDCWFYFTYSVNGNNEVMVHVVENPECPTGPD

N=C(N)NCCC[C@@H]1NC(=O)[C@H]2CSCc3cc(cc(c3)CSC[C@H](C(N)=O)NC(=O)[C@H](CC(=O)O)NC(=O)CNC1=O)CSC[C@H](NC(=O)CNC(=O)[C@H](CO)NC(=O)c1ccc(NC(=O)CNC(=O)[C@H](CO)NC(=O)[C@@H]3CCCN3C(=O)[C@@H]3CCCN3C(=O)[C@@H]3CCCN3C(=O)[C@H](CCCCNC(=O)c3cccc(I)c3)NC(=O)CCCc3ccc(I)cc3)cc1)C(=O)N[C@@H](Cc1c[nH]cn1)C(=O)N1CCC[C@H]1C(=O)N[C@@H](CCC(N)=O)C(=O)N2 [[^125I]bcRGDiba] ({Butanoyl(4-(4-I-phenyl))}-K(Benzoyl(3-I))PPPSG[4Abz]SGCHPQ[dC]RGD[dC]-NH2; linker 10-14-18 via TBMB)
Radioactivity accumulation in αVβ3 protein (His-tagged integrin αVβ3): high radioactivity accumulation | Radioactivity accumulation in αVβ3 protein with cyclo-(RGDfK) blocking versus free (His-tagged integrin αVβ3): significantly inhibited | Radioactivity accumulation in α5β1 protein, treatment versus inhibitor group (His-tagged integrin α5β1): No differences

CCCCCCCCCCCCCCCC(=O)N[C@@H](CCCCNC(=O)c1cccc(I)c1)C(=O)N1CCC[C@H]1C(=O)N1CCC[C@H]1C(=O)N1CCC[C@H]1C(=O)N[C@@H](CO)C(=O)NCC(=O)Nc1ccc(C(=O)N[C@@H](CO)C(=O)NCC(=O)N[C@H]2CSCc3cc4cc(c3)CSC[C@@H](NC(=O)[C@H](CCC(N)=O)NC(=O)[C@@H]3CCCN3C(=O)[C@H](Cc3c[nH]cn3)NC2=O)C(=O)N[C@@H](CCCNC(=N)N)C(=O)NCC(=O)N[C@@H](CC(=O)O)C(=O)N[C@@H](C(N)=O)CSC4)cc1 [[^125I]bcRGDpal] (Palmitoyl-K(Benzoyl(3-I))PPPSG[4Abz]SGCHPQ[dC]RGD[dC]-NH2; linker 10-14-18 via TBMB)
Radioactivity accumulation in αVβ3 protein (His-tagged integrin αVβ3): high radioactivity accumulation | Radioactivity accumulation in αVβ3 protein with cyclo-(RGDfK) blocking versus free (His-tagged integrin αVβ3): significantly inhibited | Radioactivity accumulation in α5β1 protein, treatment versus inhibitor group (His-tagged integrin α5β1): No differences
